Each structure is given as a SMILES string. ≈ marks a conversion by molar mass, not a printed value. Like-named read-outs stand apart in the source and are kept apart here.

This note sets out measurements from US20110183969A1, “ANTIFUNGAL COMBINATION THERAPY” (priority 2008, published 2011).

Holding throughout (assay): MIC (YAG medium)
Type in all cases: cell-based

The test system of one assay is Aspergillus flavus. As to conditions: for MIC: Aspergillus flavus, read-out: MIC A. flavus (grade). As to the method: (§1) Between 1 and 5 mgs of compound were accurately weighed out into a sterile Eppendorf tube. The compound was dissolved in DMSO to give a solution containing 5 mg/mL. Tubes were stored at −20° C. until required.
(§2) On the day of testing thawed solutions were vortex mixed to ensure homogeneity. 30 μL of solution was removed and added to 570 μL of sterile water in a separate sterile Eppendorf The thoroughly mixed solution was used to prepare a series of doubling dilutions in water, in a deep well plate. […] replicate plates were prepared using a Minitrak by aspirating 20 μL from each well into eleven clear polystyrene 96 well plates.
(§3) Spores of Aspergillus spp. (Aspergillus fumigatus [two strains], Aspergillus terreus [two strains], Aspergillus niger and Aspergillus flavus) were harvested from cultures grown on Sabarauds agar for 5 days, and resuspended in PBS/Tween 80 to approx 1×10^7 cfu/mL. Other filamentous fungi (Absidia corymbifera, Fusarium solani, Rhizomucor, Scedosporium spp., Trichophyton spp.), were grown on Sabarauds agar for 2-10 days and spores/hyphae resuspended in PBS/Tween to give approx 1×10^7 cfu/mL. Candida species (Candida albicans, Candida glabrata, Candida krusei, Candida parapsilosis and Candida tropicalis) were grown on Sabarauds agar, cells were harvested from the agar using a sterile loop and resuspended in PBS/Tween 80 to approx 1×10^6 cfu/mL. Each organism suspension was diluted in RPMI medium, containing 2% glucose and 0.135 M MOPS buffer (pH 7.0) to 0.5−2×10^4 cfu/mL for Aspergillus spp. and other filamentous fungi and 0.5-2×10^3 cfu/mL for yeast. 80 μL of an organism suspension was added to each well of the plate containing drug dilutions.
(§4) This produced MIC plates with a drug range 50-0.05 mg/L and organism inocula of 1-2×10^4 cfu/mL for Aspergillus spp. and other filamentous fungi and 1-2×10^3 cfu/mL for yeasts. All plates were incubated for 24-48 hrs at 35° C. Growth was assessed by monitoring the optical density at 485 nm for each well. The MIC of a compound is the lowest drug concentration that inhibits growth of an organism by >80% compared with a drug free control. MICs are recorded as mg/L. Other growth media can be used for susceptibility testing, and the activity of the described compounds can also be assessed in a medium comprising 1% glucose, 1% ammonium chloride and 0.5% yeast extract (YAG medium). To perform MIC tests in this medium, dilutions of compounds are prepared in microtitre plates as described above. Fungal strains to be tested are grown and harvested in an identical manner to that described above, each organism suspension is then diluted in YAG medium to 0.5-2×10^4 cfu/mL for Aspergillus spp. and other filamentous fungi and 0.5-2×10^3 cfu/mL for yeast. 80 μL of an organism suspension was added to each well of the plate containing drug dilutions. This produced MIC plates with a drug range 50-0.05 mg/L and organism inocula of 1-2×10^4 cfu/mL for Aspergillus spp. and other filamentous fungi and 1-2×10^3 cfu/mL for yeasts. All plates were incubated for 24 hrs at 35° C. Growth was assessed by monitoring the optical density at 485 nm for each well. The MIC of a compound is the lowest drug concentration that inhibits growth of an organism by >70% compared with a drug free control. MICs are recorded as mg/L. In cases where the MIC of an organism is […] mg/L the MIC is repeated using a concentration range of 0.5-0.0005 mg/L. MIC tests in YAG medium have more clear-cut endpoints and have slightly lower MICs than those performed in RPMI medium.
(§5) The following organisms were tested: Absidia corymbifera, Aspergillus flavus, Aspergillus fumigatus AF293 and AF210, Aspergillus niger, Aspergillus terreus AT4 and AT49, Candida albicans, Candida glabrata, Candida krusei, Candida parapsilosis, Candida tropicalis, Fusarium solani, Rhizomucor sp., Scedosporium apiospermum, Scedosporium prolificans, Trichophyton mentagrophytes, and Trichophyton rubrum.

The subject of assay [1] is Aspergillus fumigatus AF210. To be noted: for MIC: Aspergillus fumigatus. As to the method:
as §1, §2, §3, §4, §5

In another assay the test system is Aspergillus terreus AT4. To be noted: for MIC: Aspergillus terreus. Here is the method:
as §1, §2, §3, §4, §5

Another assay relates to Aspergillus terreus AT49. To be noted: for MIC: Aspergillus terreus. Here is the method:
as §1, §2, §3, §4, §5

In a further assay the test system is Aspergillus niger. As to conditions: for MIC: Aspergillus niger, read-out: MIC A. niger (grade). As to the method:
as §1, §2, §3, §4, §5

In assay [2] the test system is Aspergillus fumigatus AF293. To be noted: for MIC: Aspergillus fumigatus. As to the method:
as §1, §2, §3, §4, §5

Where [3] appears, read: AF210, read-out: MIC A. fumigatus 210 (grade).
Where [4] appears, read: AT4, read-out: MIC A. terreus (grade).
[5] abbreviates: AT49, read-out: MIC A. terreus 49 (grade).
[6] abbreviates: AF293, read-out: MIC A. fumigatus (grade).
The mark [7] stands for this setting: YAG medium, MIC banded into grades.
[8] abbreviates: YAG medium, MIC banded into grades, AF210, read-out: MIC A. fumigatus 210 (grade).
Where [9] appears, read: YAG medium, MIC banded into grades, AT4, read-out: MIC A. terreus (grade).
Setting [10] is: YAG medium, MIC banded into grades, AT49, read-out: MIC A. terreus 49 (grade).
The mark [11] stands for this setting: YAG medium, MIC banded into grades, AF293, read-out: MIC A. fumigatus (grade).

Take `CCN(CC)C(=O)Oc1cc(-c2ccc(NC(=O)C(=O)c3c(-c4ccccc4)cc4ccccn34)cc2)on1` [Example 27, Diethyl-carbamic acid-5-{4-[2-oxo-2-(2-phenyl-indolizin-3-yl)-acetylamino]-phenyl}-isoxazol-3-yl ester]: the MIC (in the assay with Aspergillus flavus; in assay [1] (setting [3]); in the assay with Aspergillus terreus AT4 (setting [4]); in the assay with Aspergillus terreus AT49 (setting [5]); in the assay on Aspergillus niger; in assay [2] (setting [6])) was under 1 µg/mL throughout.
On to `O=C(Nc1ccc(N2CCC(N3CCOCC3)CC2)cc1)C(=O)c1c(-c2ccccc2Cl)cc2ccccn12` [Example 26, 2-[2-(2-Chloro-phenyl)-indolizin-3-yl]-N-[4-(4-morpholin-4-yl-piperidin-1-yl)-phenyl]-2-oxo-acetamide], for which the MIC was under 1 µg/mL in the assay on Aspergillus flavus (setting [7]); under 1 µg/mL in assay [1] (setting [8]); 1 to 10 µg/mL (≈ 1.84 to 18.4 µM) in the assay with Aspergillus terreus AT4 (setting [9]); under 1 µg/mL in the assay on Aspergillus terreus AT49 (setting [10]); 1 to 10 µg/mL (≈ 1.84 to 18.4 µM) in the assay on Aspergillus niger (setting [7]); 1 to 10 µg/mL (≈ 1.84 to 18.4 µM) in assay [2] (setting [11]).
With `Cc1nccn1CCCOc1ccc(NC(=O)C(=O)c2c(-c3ccccc3)cc3ccccn23)cc1C(C)C` [Example 20, N-{3-Isopropyl-4-[3-(2-methyl-imidazol-1-yl)-propoxy]-phenyl}-2-oxo-2-(2-phenyl-indolizin-3-yl)-acetamide], the MIC was under 1 µg/mL in the assay with Aspergillus flavus (setting [7]); 1 to 10 µg/mL (≈ 1.92 to 19.2 µM) in assay [1] (setting [8]); 1 to 10 µg/mL (≈ 1.92 to 19.2 µM) with Aspergillus terreus AT4 (setting [9]); under 1 µg/mL in the assay with Aspergillus terreus AT49 (setting [10]); over 10 µg/mL in the assay on Aspergillus niger (setting [7]); 1 to 10 µg/mL (≈ 1.92 to 19.2 µM) in assay [2] (setting [11]).
`CC(C)c1nc(C(C)(C)c2ccc(NC(=O)C(=O)c3c(-c4ccccc4)cc4ccccn34)cc2)cn1C` [Example 16, N-{4-[1-(2-isopropyl-1-methyl-1H-imidazol-4-yl)-1-methyl-ethyl]-phenyl}-2-oxo-2-(2-phenyl-indolizin-3-yl)-acetamide]: the MIC with Aspergillus flavus (setting [7]) was under 1 µg/mL; in assay [1] (setting [8]), 1 to 10 µg/mL (≈ 1.98 to 19.8 µM); with Aspergillus terreus AT4 (setting [9]) it was under 1 µg/mL; in the assay with Aspergillus terreus AT49 (setting [10]), under 1 µg/mL; in the assay with Aspergillus niger (setting [7]) it was 1 to 10 µg/mL (≈ 1.98 to 19.8 µM); in assay [2] (setting [11]), 1 to 10 µg/mL (≈ 1.98 to 19.8 µM).
In the case of `C=C1CCN(c2ccc(NC(=O)C(=O)c3c(-c4cccnc4C)cc4ccccn34)cc2)CC1` [Example 46, N-[4-(4-Methylene-piperidin-1-yl)-phenyl]-2-[2-(2-methyl-pyridin-3-yl)-indolizin-3-yl]-2-oxo-acetamide], the MIC (with Aspergillus flavus (setting [7]); in assay [1] (setting [8]); in the assay with Aspergillus terreus AT4 (setting [9]); with Aspergillus terreus AT49 (setting [10]); in the assay with Aspergillus niger (setting [7]); in assay [2] (setting [11])) was under 1 µg/mL in each case.
As to `O=C(Nc1ccc(NCCOc2ccccn2)cc1)C(=O)c1c(-c2ccccc2)cc2ccccn12` [Example 90, 2-Oxo-2-(2-phenyl-indolizin-3-yl)-N-{4-[2-(pyridin-2-yloxy)-ethylamino]-phenyl}-acetamide], the MIC (in the assay with Aspergillus flavus (setting [7]); in assay [1] (setting [8]); with Aspergillus terreus AT4 (setting [9]); with Aspergillus terreus AT49 (setting [10]); with Aspergillus niger (setting [7]); in assay [2] (setting [11])) was under 1 µg/mL in each case.
Take `O=C1Cc2cc(NC(=O)C(=O)c3c(-c4ccccc4)cc4ccccn34)ccc2N1` [Example 9, 2-Oxo-N-(2-oxo-2,3-dihydro-1H-indol-5-yl)-2-(2-phenyl-indolizin-3-yl)-acetamide]: the MIC (in the assay with Aspergillus flavus; in assay [1] (setting [3]); in the assay on Aspergillus terreus AT4 (setting [4]); with Aspergillus terreus AT49 (setting [5]); in the assay on Aspergillus niger; in assay [2] (setting [6])) was over 10 µg/mL each time.
Turning to `O=C(Nc1ccc(N2CCN(c3ccc(CN4CCOCC4)cn3)CC2)cc1)C(=O)c1c(-c2ccccc2)cc2ccccn12` [Example 77, N-{4-[4-(5-morpholin-4-yl-methyl-pyridin-2-yl)-piperazin-1-yl]-phenyl}-2-oxo-2-(2-phenyl-indolizin-3-yl)-acetamide], the “MIC A. flavus (grade)” value against Aspergillus flavus (setting [7]) is recorded as 3 (A grade of 3 represents an MIC of less than 1 mg/L). The “MIC A. fumigatus 210 (grade)” value in assay [1] (YAG medium, MIC banded into grades, AF210) is on record as 3 (A grade of 3 represents an MIC of less than 1 mg/L). Moreover, the “MIC A. terreus (grade)” value with Aspergillus terreus AT4 (YAG medium, MIC banded into grades, AT4) is on record as 3 (A grade of 3 represents an MIC of less than 1 mg/L). The “MIC A. terreus 49 (grade)” value in the assay with Aspergillus terreus AT49 (YAG medium, MIC banded into grades, AT49) is on record as 3 (A grade of 3 represents an MIC of less than 1 mg/L). In the assay with Aspergillus niger (setting [7]), the “MIC A. niger (grade)” value was 3 (A grade of 3 represents an MIC of less than 1 mg/L). Also, the “MIC A. fumigatus (grade)” value in assay [2] (YAG medium, MIC banded into grades, AF293) was 3 (A grade of 3 represents an MIC of less than 1 mg/L).
Turning to `O=C(Nc1ccc(N2CCN(c3cc(OCCO)ccn3)CC2)cc1)C(=O)c1c(-c2ccccc2)cc2ccccn12` [Example 89, N-(4-{4-[4-(2-Hydroxy-ethoxy)-pyridin-2-yl]-piperazin-1-yl}-phenyl)-2-oxo-2-(2-phenyl-indolizin-3-yl)-acetamide], the MIC was under 1 µg/mL in the assay on Aspergillus flavus (setting [7]); 1 to 10 µg/mL (≈ 1.78 to 17.8 µM) in assay [1] (setting [8]); 1 to 10 µg/mL (≈ 1.78 to 17.8 µM) with Aspergillus terreus AT4 (setting [9]); under 1 µg/mL in the assay on Aspergillus terreus AT49 (setting [10]); 1 to 10 µg/mL (≈ 1.78 to 17.8 µM) in the assay on Aspergillus niger (setting [7]); 1 to 10 µg/mL (≈ 1.78 to 17.8 µM) in assay [2] (setting [11]).
On to `COc1ccc(NC(=O)C(=O)c2c(C)c(-c3ccccc3)c3ccccn23)cc1` [Example 6, N-(4-methoxy-phenyl)-2-(2-methyl-1-phenyl-indolizin-3-yl)-2-oxo-acetamide], for which the MIC (with Aspergillus flavus (setting [7]); in assay [1] (setting [8]); in the assay on Aspergillus terreus AT4 (setting [9]); in the assay on Aspergillus terreus AT49 (setting [10]); in the assay with Aspergillus niger (setting [7]); in assay [2] (setting [11])) was over 10 µg/mL each time.
Turning to `Cc1cc(NC(=O)C(=O)c2c(-c3ccccc3)cc3ccccn23)ccc1OCCCn1ccnc1C(C)C` [Example 12, N-{4-[3-(2-Isopropyl-imidazol-1-yl)-propoxy]-3-methyl-phenyl}-2-oxo-2-(2-phenyl-indolizin-3-yl)-acetamide], the MIC is under 1 µg/mL in the assay with Aspergillus flavus (setting [7]); 1 to 10 µg/mL (≈ 1.92 to 19.2 µM) in assay [1] (setting [8]); 1 to 10 µg/mL (≈ 1.92 to 19.2 µM) in the assay with Aspergillus terreus AT4 (setting [9]); 1 to 10 µg/mL (≈ 1.92 to 19.2 µM) in the assay with Aspergillus terreus AT49 (setting [10]); over 10 µg/mL in the assay with Aspergillus niger (setting [7]); 1 to 10 µg/mL (≈ 1.92 to 19.2 µM) in assay [2] (setting [11]).
With `CN1/C(=N/c2ccc(NC(=O)C(=O)c3c(-c4ccccc4)cc4ccccn34)cc2)OCC1(C)C` [Example 8, 2-oxo-2-(2-phenyl-indolizin-3-yl)-N-{4-[3,4,4-trimethyl-oxazolidin-(2Z)-ylideneamino]-phenyl}-acetamide], the MIC with Aspergillus flavus (setting [7]) is over 10 µg/mL; in assay [1] (setting [8]), over 10 µg/mL; with Aspergillus terreus AT4 (setting [9]) it was over 10 µg/mL; in the assay with Aspergillus terreus AT49 (setting [10]), 1 to 10 µg/mL (≈ 2.14 to 21.4 µM); in the assay on Aspergillus niger (setting [7]) it was over 10 µg/mL; in assay [2] (setting [11]), over 10 µg/mL.

The MIC is the least concentration at which growth counts as inhibited.
